How the values were obtained:
[1] = Pharmacokinetics and oral bioavailability in the mouse; assay type: in vivo; settings: 10 mg/kg, oral vs IV dose-normalized AUC
[2] = test system: Capan-1 human pancreatic cancer tumors; assay: In vivo efficacy as single agent, Capan-1 BRCA-2 mutated mouse model; settings: 75 mg/kg oral, daily (schedule 1-8 or 1-10)
Text: Balb, athymic Nu/Nu male mice, from Harlan (Italy), were maintained in agreement with the European Communities Council Directive no. 86/609/EEC concerning the protection of animals used for experimental or other scientific purposes, in cages with paper filter cover, food and bedding sterilized and acidified water. Fragments of Capan-1 human pancreatic cancer tumors were implanted subcutaneously. […] Each group included seven animals. The treatment started one day after randomization. Compound of formula (I) was administered by oral route as a methocel suspension at the indicated doses and times. Tumor dimension was measured regularly by calipers during the experiments and tumor mass was calculated as described in Simeoni M. et al., Cancer Res 64, 1094-1101 (2004).

[3] = test system: BRCA-mutated breast, ovarian and prostate cancer; settings: 19 patients with BRCA mutations and breast; cited from earlier work

| SMILES | F on AUC [1] | Max TGI (%) [2] | objective response rate [3] |
| --- | --- | --- | --- |
| NC(=O)c1cccc2c1C(=O)N(C1CCN(C3CCCCC3)CC1)C2 [(11), 2-(1-cyclohexyl-piperidin-4-yl)-3-oxo-2,3-dihydro-1H-isoindole-4-carboxylic acid amide] | 100% | 42% |  |
| NC(=O)c1cccc2c1C(=O)N(C1CCN(Cc3ccccn3)CC1)C2 [(15), 3-oxo-2-(1-pyridin-2-ylmethyl-piperidin-4-yl)-2,3-dihydro-1H-isoindole-4-carboxylic acid amide] | 68% | 54% |  |
| O=C(c1cc(Cc2n[nH]c(=O)c3ccccc23)ccc1F)N1CCN(C(=O)C2CC2)CC1 [Olaparib] |  |  | 47% |

More lines, main results first:

| F on AUC [1] | SMILES | Max TGI (%) [2] | objective response rate [3] |
| --- | --- | --- | --- |
| 30% | NC(=O)c1cccc2c1C(=O)N(CCN1CCc3ccccc3C1)C2 [(3), 2-[2-(3,4-dihydro-1H-isoquinolin-2-yl)-ethyl]-3-oxo-2,3-dihydro-1H-isoindole-4-carboxylic acid amide] |  |  |
| 57% | NC(=O)c1cccc2c1C(=O)N(C1CCN(Cc3ccoc3)CC1)C2 [(14), 2-(1-furan-3-ylmethyl-piperidin-4-yl)-3-oxo-2,3-dihydro-1H-isoindole-4-carboxylic acid amide] |  |  |
| 37% | NC(=O)c1cccc2c1C(=O)N(C1CCN(Cc3ccc[nH]3)CC1)C2 [(16), 3-oxo-2-[1-(1H-pyrrol-2-ylmethyl)-piperidin-4-yl]-2,3-dihydro-1H-isoindole-4-carboxylic acid amide] |  |  |

— US11420940B2, “4-carboxamido-isoindolinone derivatives as selective parp-1 inhibitors” (NERVIANO MEDICAL SCIENCES S.r.l, priority 2012, dated 2022)
